Reference: patent US20170252433A1, “PSMA-RELATED THERAPIES” (Memorial Sloan Kettering Cancer Center, priority 2014, published 2017)

Assays:
[1] = test system: phosphorylation of CAMKK2, AMPKα and AKT in PSMA-expressing and PSMA-negative (PC3-wt) cells; assay: Phosphorylation status by isoelectric focusing (NanoPro); type: cell-based, human; conditions: for CAMKK2 phosphorylation: 5 μM, 48 h, FIG. 3b
Description: CAMKK2, AMPKα and AKT antibodies were purchased from Cell Signaling (Danvers, Mass.). Cells were grown to confluence and treated with 2-PMPA (5 μM, Tocris) for 48 h. The phosphorylation status of proteins of interest was determined with an isoelectric-focusing instrument (NanoPro1000, Protein Simple, Santa Clara, Calif.), where the samples were prepared and analyzed according to the supplier's guidelines. Determination of site-specific phosphorylation of key proteins was performed with a human phosphor-kinase array (ARY003, R&D Systems, Minneapolis, Minn.), according to the product's instructions.
Phosphorylation state of calcium dependent downstream effectors was analyzed. Since activation of metabotropic glutamate receptors and their associated G proteins can lead to phosphorylation of downstream effectors, phosphorylation levels of key proteins relative to PSMA expression was examined. The NanoPro system from Protein Simple was used, which allowed the determination of global phosphorylation status based on the isoelectric point changes of the target protein. The samples were prepared according to the supplier's guidelines, following lysis of the cells with the NanoPro lysis buffer. All antibodies used were purchased from Cell Signaling, detecting the total protein levels of a target protein. […] (FIG. 3b). […] It has been previously shown that either G protein-activated PI3K or calcium-activated mTORC2 phosphorylating PAK can cause Akt's phosphorylation. All graphs depict mean±s.e.m.

[2] = test system: PSMA-expressing (LNCaP-PSMA+ve) and PSMA-negative (LNCaP-PSMA-ve) cells; assay: Cell viability with ROS-generating drug Elesclomol (Alamar Blue); type: cell-based, human; conditions: 2-PMPA 250 nM, 48 h; Elesclomol 250 nM; FIG. 8 C and D
Description: Cell viability of (A) PSMA-expressing (LNCaP-PSMA+ve) and (B) PSMA-negative cells (LNCaP-PSMA-ve where PSMA expression was knocked down with shRNA) was determined via the fluorescence-based Alamar Blue method (λex=565 nm and λem=585 nm). Cell viability was assessed 48 h after drug administration with either vehicle (DMSO) or the ROS-generating drug Elesclomol (250 nM, Selleck Chemicals). […] The cells were treated for 48 h, and cell viability was determined with the Alamar Blue method.

[3] = test system: LNCaP, LNCaP-KD, PC3-PSMA and PC3-wt cells; assay: In vitro chemotherapy, cell viability (Alamar blue)
Description: Cells were seeded in a 96-well format (2,500 cells per well), and grown for 48 h. They were then treated with the following drugs at a final concentration of 200 nM: Doxorubicin, Taxol, AZD6244, BEZ235, Lapatinib, and Velcade (all purchased from Selleck Chemicals, Houston, Tex.). For combination therapy, cells were treated with 2-PMPA (5 μM final concentration). After overnight incubation in the presence of the drugs, cell viability was determined with the Alamar blue method according to the supplier's guidelines (Life Technologies, Carlsbad, Calif.)
Given that PSMA affects the phosphorylation status of multiple targets, it was investigated whether inhibition of PSMA can counteract resistance to various chemotherapeutics used in the clinic or under clinical trials. LNCaP and PCS3-PSMA cells were seeded at a density of 2,500 cells per well in a 96-well format, and after 48 hours growth the cells were treated with the drugs (Doxorubicin (Adriamycin; DNA intercalator), Taxol (Paclitaxel; microtubule stabilizer), AZD6244 (Selumetinib; MEK1 & ERK1/2 inhibitor), BEZ235 (Dactolisib; PI3K & mTOR inhibitor), Lapatinib (EGFR and ErbB2 inhibitor), or Velcade (Bortezomib; 20S proteasome inhibitor), 200 nM final concentration in 1×PBS) or with the drugs (200 nM final concentration) and 2-PMPA (5 μM final concentration). After overnight incubation, cell viability was assessed fluorimetrically with the Alamar blue method (Invitrogen), according to the supplier's protocol.

LNCaP xenografts = assay: In vivo chemotherapy, LNCaP xenografts; design: species or system male athymic, nude mice; conditions: 0.4 mM, 100 μL retro-orbital injection daily from implantation
Description: Male, athymic, nude mice (Harlan Laboratories, Indianapolis, Ind.) were implanted with LNCaP xenografts (3 million cells in 100 μL Matrigel) on each flank. Immediately post xengraft implantation, the mice were treated daily iv with 2-PMPA (0.4 mM, 100 μL retro-orbital injection). Tumor volume was assessed by measuring the tumor with microcalipers. Combination therapy was performed with male athymic, nude mice with LNCaP xenografts, which were treated daily post tumor detection. Chemotherapy was administered by iv (100 μL retro-orbital injection) with animals receiving either enzalutamide (0.15 mM), 2-PMPA (3 mM) or both compounds (0.15 mM enzalutamide and 3 mM 2-PMPA). Male athymic, nude mice with PC3-PSMA xenografts (3 million cells in 100 μL Matrigel) were treated with either vehicle (DMSO) or a combination of AZD8055 and XL184 (AZD8055 0.4 mM and XL184 8 μM 100 μL retro-orbital injection).
Tumor growth was examined using daily treatment of male athymic, nude mice with LNCaP xenografts on their flanks Each animal's flanks were injected with 3,000,000 cells in 100 μL matrigel, and the animals were immediately treated with 2-PMPA (0.4 mM, 100 μL retro-orbital injection). Tumor volume was assessed by measuring the tumor with microcalipers. […] In a different study, male athymic, nude mice with LNCaP xenografts were treated daily post tumor detection, with either enzalutamide (0.15 mM, 100 μL retro-orbital injection), 2-PMPA (3 mM, 100 μL retro-orbital injection) or both compounds (0.15 mM enzalutamide and 3 mM 2-PMPA, 100 μL retro-orbital injection). […] (FIG. 9c-d).

LNCaP-wt xenografts = assay: Photoacoustic imaging of tumor vascularization and oxygenation; type: in vivo, male athymic, nude mice; conditions: 0.4 mM, 100 μL retro-orbital injection daily
Description: Male, athymic, nude mice (Harlan Laboratories, Indianapolis, Ind.) were implanted with LNCaP xenografts (3 million cells in 100 μL Matrigel). Immediately post xengraft implantation, the mice were treated daily iv with 2-PMPA (0.4 mM, 100 μL retro-orbital injection). Tumor vascularization and oxygenation was assessed 15 days after treatment commencements, using the Vevo LAZR small-animal photoacoustic imaging platform (Visualsonics, Toronto, ON, Canada).
The tumors used in the study had roughly the same size. […] (FIG. 6 a-b). […] (FIG. 6c)

## O=C(O)CCC(CP(=O)(O)O)C(=O)O (centres unmarked) [2-PMPA]
[1]; PSMA-expressing cells
  CAMKK2 phosphorylation: decreased CAMKK2's phosphorylation
[1]; PSMA-positive cells, FIG. 3c
  phosphorylation of AMPKα: impaired
[1]; PSMA-positive cells, FIG. 3d
  phosphorylation of AKT: impaired
[1]; cells lacking PSMA
  CAMKK2 phosphorylation: no effect
[2]
  resistance to ROS-generating drug (cell viability): abrogates drug resistance and renders the cells susceptible to cell death
[3]; PSMA-expressing cells, drugs 200 nM plus 2-PMPA 5 μM, overnight, FIG. 7a-d
  effect of 2-PMPA on toxicity of chemotherapeutics (cell viability): enhanced the toxicity of all chemotherapeutics
[3]; for the study's time-course
  cytotoxic effect of the inhibitor alone: no cytotoxic effect
LNCaP xenografts
  tumor size and growth: smaller tumors that grew slowly
LNCaP xenografts; FIG. 9a
  tumor initiation: did not affect tumor initiation
LNCaP xenografts; FIG. 9b
  animal survival: extended the animals survival
LNCaP-wt xenografts; FIG. 6a-b
  tumor total hemoglobin levels: lower total hemoglobin levels
LNCaP-wt xenografts; FIG. 6c
  tumor consumption of oxygen: lower consumption of oxygen
LNCaP-wt xenografts; versus saline
  tumor oxygenation: lower tumor oxygenation
LNCaP-wt xenografts; versus saline, FIG. 6a-b
  tumor vascularization: lower tumor vascularization
